Results published in patent US9895337B2, “Compositions containing monoacetyldiacylglycerol compound as an active ingredient for preventing or treating rheumatoid arthritis” (ENZYCHEM LIFESCIENCES CORPORATION, priority 2013, dated 2018).

How the values were obtained:
[1] = system: collagen-induced arthritis in male DBA/1J mouse; assay: Arthritis animal model induced by bovine type II collagen; assay type: in vivo; details: for histopathological arthritis score of knee joint: knee joint of both hind legs, vs negative control (FIG. 6); for histopathological arthritis score of knee joint / concentration of IL-6 in serum: EC-18 125, 500, 2,000 mg/kg oral, Remicade 20 mg/kg i.p., methotrexate 2.5 mg/kg oral; for concentration of IL-6 in serum: serum at day of tissue excision, once a day for five weeks, vs negative control (FIG. 4)
Protocol: For arthritis animal model experiment, arthritis was induced in male DBA/1J mouse by administering bovine type II collagen to the mouse. Efficacy of EC-18 for treating (or improving) arthritis was evaluated by repeatedly administering EC-18 to the mouse orally. For comparison, Remicade (positive control 1) was administered intraperitoneally and methotrexate (positive control 2) was administered orally. The experiment included seven groups: normal group (G1), negative control (G2), 125 mg/kg, 500 mg/kg and 2,000 mg/kg of EC-18 (EC-18 treatment groups, G3, G4, G5), 20 mg/kg of Remicade (Positive control 1, G6) and 2.5 mg/kg of Methotrexate (Positive control 2, G7). Each group consists of 10 mice. Olive oil was administered to normal group (G1) and negative control group (G2) as an excipient. In all groups, administration was made once a day for five weeks (a total of 35 administrations). Remicade (G6) was administered intraperitoneally, whereas EC-18, methotrexate and olive oil were administered orally in force. For all groups except normal Group (G1), arthritis was induced by immunizing animals twice with bovine type II collagen and complete Freund's adjuvant or incomplete Freund's adjuvant emulsion. During the observation period, common arthritis symptoms were observed once a day, weigh measured once a week, arthritic score evaluation made with the naked eye twice a week, foot thickness measured twice a week.

[2] = system: STAT-1; assay: Inhibition of PMA-induced STAT-1 phosphorylation in NK-92 cells (western blot); assay type: cell-based, Human; details: PMA-induced (FIG. 2B)
Protocol: Human cell lines NK-92, U937, A549 and HepG2 (American Type Culture Collection, ATCC, Rockville, Md.) were cultured at 37° C. under 5% CO2 humid conditions. NK-92 cells were cultured in alpha-MEM media (Life Technologies, Karlsruhe, Germany) containing 10% Fetal Calf Serum (FCS, HyClone, Logan, Utah), 2 mM […], 100 μg/ml penicillin, 100 μg/ml streptomycin (Life Technologies). U937, A549 and HepG2 cells were cultured in RPMI media containing 10% Fetal Calf Serum.
Cells treated in EC-18 and PMA (Phobol 12-myristate 13-acetate) were lysed with cold SDS lysis buffer [(50 mM HEPES, 150 mM NaCl, 0.2 mM EDTA, 0.5% NP-40, 0.1% SDS, 1 mM Na3VO4, 10 mM NaF, and complete Protein Inhibitor Cocktail (Roche)] for 30 minutes on ice. After cell lysis, the aqueous solution was separated from the insoluble precipitate by centrifuging the cell lysates for 30 minutes at 13,000 rpm in a high-speed centrifuge. After protein quantification, the aqueous solution was separated in 10 to 12% SDS-PAGE by electrophoresis. Proteins separated in the gel were transferred into PVDF membrane (Millipore, Billerica, Mass., USA) at 100V for 2 hours. […]

CN(Cc1cnc2nc(N)nc(N)c2n1)c1ccc(C(=O)N[C@@H](CCC(=O)O)C(=O)O)cc1 [Methothrexate, methotrexate]
histopathological arthritis score of knee joint [1]: reduced | concentration of IL-6 in serum [1]: reduced

Remicade: positive control 1, administered intraperitoneally at 20 mg/kg
crushing of cartilage and increase of Pannus (stained arthritic tissue) ([1]; EC-18 500 mg/kg oral (G4), Remicade 20 mg/kg i.p. (G6), vs negative control (FIGS. 7 and 8)): reduced | histopathological arthritis score of knee joint [1]: reduced | concentration of IL-6 in serum [1]: reduced

CCCCC/C=C\C/C=C\CCCCCCCC(=O)OC(COC(C)=O)COC(=O)CCCCCCCCCCCCCCC (stereo not drawn) [EC-18, 1-palmitoyl-2-linoleoyl-3-acetylglycerol]
STAT-1 phosphorylation [2]: does not inhibit
